In US20230059136A1, “THE COMPOUNDS AND COMPOSITIONS FOR TREATING CONDITIONS ASSOCIATED WITH NLRP ACTIVITY” (Novartis AG, priority 2018, published 2023) one finds IC50 data, which are given here for ten compounds.

Read-outs that look alike come from different tables or passages of the source.

The test deals with IL-1β production in PMA-differentiated THP-1 cells. Briefly: IL-1β production in PMA-differentiated THP-1 cells stimulated with gramicidin (hTHP-1 assay containing 2% fetal bovine serum). Format: cell-based, human. The note with it: 2% fetal bovine serum, class symbols, read-out: hTHP-1 IC50 (Average IC50 of compounds in hTHP-1 assay). In a few lines:
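IL-1β release was read by HTRF on supernatants of 50,000 PMA-primed (20 ng/ml, 16-18 h) THP-1 cells/well in 2% FBS medium. Cells saw compound for 1 h (11-point titration from 100 μM, 0.37% DMSO) before a 2 h gramicidin (5 μM) challenge.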

A word on the IC50: it is the midpoint of a concentration-inhibition curve. With `CC(C)c1ccc(F)c(C(C)C)c1CC(=O)N=S(N)(=O)c1nc(C(C)(C)O)cs1` (single isomer, unassigned) [Example 182, (S) or (R)-N-(amino(4-(2-hydroxypropan-2-yl)thiazol-2-yl)(oxo)-λ^6-sulfaneylidene)-2-(3-fluoro-2,6-diisopropylphenyl) acetamide], the IC50 (Table B1) was 5000 to 30000 nM.

Consider `CC(C)c1cc2c(c(C(C)C)c1CC(=O)N=S(N)(=O)c1cnc(C(C)(C)O)s1)COC2` (single isomer, unassigned) [Example 183, (R) or (S)-N-(amino(2-(2-hydroxypropan-2-yl)thiazol-5-yl)(oxo)-λ^6-sulfaneylidene)-2-(4,6-diisopropyl-1,3-dihydro-isobenzofuran-5-yl)acetamide], for which, where the note is “Table B1”, the IC50 lay within 200 to 1000 nM.

Turning to `CC(C)c1cc2c(c(C(C)C)c1CC(=O)N=S(N)(=O)c1cnc(C(C)(C)O)s1)COC2` (single isomer, unassigned) [Example 184, (S) or (R)-N-(amino(2-(2-hydroxypropan-2-yl)thiazol-5-yl)(oxo)-λ^6-sulfaneylidene)-2-(4,6-diisopropyl-1,3-dihydro-isobenzofuran-5-yl)acetamide], for the setting “Table B1”, the IC50 lay in the range of 5000 to 30000 nM.

As to `COCc1cc(C(C)C)c(CC(=O)N=S(N)(=O)c2ncc(C(C)(C)O)s2)c(C(C)C)c1` (single isomer, unassigned) [Example 185, (R) or (S)-N-(amino(5-(2-hydroxypropan-2-yl)thiazol-2-yl)(oxo)-λ^6-sulfaneylidene)-2-(2,6-diisopropyl-4-(methoxymethyl)phenyl)acetamide], the IC50 (Table B1) lay in the range of 40 to 200 nM.

For the compound `COCc1cc(C(C)C)c(CC(=O)N=S(N)(=O)c2ncc(C(C)(C)O)s2)c(C(C)C)c1` (single isomer, unassigned) [Example 186, (S) or (R)-N-(amino(5-(2-hydroxypropan-2-yl)thiazol-2-yl)(oxo)-λ^6-sulfaneylidene)-2-(2,6-diisopropyl-4-(methoxymethyl)phenyl)acetamide], the IC50 (Table B1) was in the range of 5000 to 30000 nM.

Take `CC(C)c1ccc(F)c(C(C)C)c1CC(=O)N=S(N)(=O)c1ncc(C(C)(C)O)s1` (single isomer, unassigned) [Example 187, (S) or (R)-N-(amino(5-(2-hydroxypropan-2-yl)thiazol-2-yl)(oxo)-λ^6-sulfaneylidene)-2-(3-fluoro-2,6-diisopropylphenyl) acetamide]: the IC50 (Table B1) lay in the range of 5000 to 30000 nM.

With `CC(C)c1ccc(F)c(C(C)C)c1CC(=O)N=S(N)(=O)c1ncc(C(C)(C)O)s1` (single isomer, unassigned) [Example 188, (R) or (S)-N-(amino(5-(2-hydroxypropan-2-yl)thiazol-2-yl)(oxo)-λ^6-sulfaneylidene)-2-(3-fluoro-2,6-diisopropylphenyl) acetamide], for the setting “Table B1”, the IC50 lay in the range of 200 to 1000 nM.

Turning to `CC(C)c1cc(C#N)c(F)c(C(C)C)c1CC(=O)N=S(N)(=O)c1nc(C(C)(C)O)cs1` (single isomer, unassigned) [Example 189, (S) or (R)-N-(amino(4-(2-hydroxypropan-2-yl)thiazol-2-yl)(oxo)-λ^6-sulfaneylidene)-2-(4-cyano-3-fluoro-2,6-diisopropylphenyl) acetamide], where the note is “Table B1”, the IC50 is 1000 to 5000 nM.

On to `CC(C)c1cc(C#N)c(F)c(C(C)C)c1CC(=O)N=S(N)(=O)c1nc(C(C)(C)O)cs1` (single isomer, unassigned) [Example 190, (R) or (S)-N-(amino(4-(2-hydroxypropan-2-yl)thiazol-2-yl)(oxo)-λ^6-sulfaneylidene)-2-(4-cyano-3-fluoro-2,6-diisopropylphenyl) acetamide], for which the IC50 (Table B1) was in the range of 40 to 200 nM.

Take `CC(C)c1cc2c(c(C(C)C)c1CC(=O)N=S(N)(=O)c1ccc(CN(C)C)cc1)COC2` (single isomer, unassigned) [Example 191, (R) or (S)-N-(amino(4-((dimethylamino)methyl)phenyl)(oxo)-λ^6-sulfaneylidene)-2-(4,6-diisopropyl-1,3-dihydroisobenzofuran-5-yl)acetamide]: under “Homo sapiens, THP-1, Table B1”, the IC50 is 1000 to 5000 nM.
